Results reported in ChEMBL document CHEMBL5543095 (Eur J Med Chem, 2024).

Columns and labels:
U-87 MG [1] = assay: Antiproliferative activity against human U87 cells assessed as inhibition of cell growth inhibition incubated for 48 hrs by CCK-8 assay; type: functional, cell-based, U-87MG ATCC
[2] = Cytotoxicity against HUVEC cells assessed as inhibition of cell growth inhibition incubated for 48 hrs by CCK-8 assay; type: toxicity, cell-based; conditions: human
A549 = assay: Antiproliferative activity against human A549 cells assessed as inhibition of cell growth inhibition incubated for 48 hrs by CCK-8 assay; type: functional, cell-based; conditions: A549, 48 h
Huh-7 = assay: Antiproliferative activity against human Huh-7 cells assessed as inhibition of cell growth inhibition incubated for 48 hrs by CCK-8 assay; type: functional, cell-based; conditions: Huh-7, 48 h
[3] = Apparent permeability across basolateral to apical side in MDCK-MDR1 cells at 10 uM incubated for 90 mins by LC-MS/MS analysis; type: ADME, cell-based, Canis lupus familiaris; conditions: dog
[4] = Apparent permeability across apical to basolateral side in MDCK-MDR1 cells at 10 uM incubated for 90 mins by LC-MS/MS analysis; type: ADME, cell-based, Canis lupus familiaris; conditions: dog
P-gp = assay: Substrate activity at P-gp in MDCK-MDR1 cells assessed as efflux ratio of apparent permeability across basolateral to apical side over apical to basolateral side at 10 uM incubated for 90 mins by LC-MS/MS analysis; type: ADME, cell-based, Canis lupus familiaris; conditions: dog
U-87 MG [5] = assay: Induction of cell cycle arrest in human U87 cells assessed as accumulation of cells at G1 phase at 25 nM measured after 48 hrs by PI staining based flow cytometry analysis (reference value: 72.6%); type: functional, U-87MG ATCC
U-87 MG [6] = assay: Induction of cell cycle arrest in human U87 cells assessed as accumulation of cells at […] at 25 nM measured after 48 hrs by PI staining based flow cytometry analysis (reference value: 8.55%); type: functional, U-87MG ATCC
[7] = Toxicity in C57BL/6 mouse implanted with mouse GL261-Luc cells assessed as reduction in body weight at 5 mg/kg, iv administered every other day on day 0,2,4,6,8,10 and measured after 12 days; type: organism-based; conditions: in vivo, 288 h, time 12 day
[8] = Toxicity in C57BL/6 mouse implanted with mouse GL261-Luc cells assessed as reduction in body weight at 5 to 10 mg/kg, iv administered every other day on day 0,2,4,6,8,10 and measured after 12 days; type: organism-based; conditions: in vivo, 288 h, dose 5-10 mg/kg, time 12 day

| SMILES | IC50 (U-87 MG [1]) | IC50 at 48 h [2] | IC50 (A549) | IC50 (Huh-7) | Papp B→A at 1.5 h, 10 µM [3] | Papp A→B at 1.5 h, 10 µM [4] | efflux ratio at 1.5 h, 10 µM (P-gp) | Activity (U-87 MG [5]) | Activity (U-87 MG [6]) | Activity [7] | Activity [8] |
| --- | --- | --- | --- | --- | --- | --- | --- | --- | --- | --- | --- |
| N#CC1=C(N)Oc2c(cc(Cl)c3cccnc23)C1c1ccc(Cl)cc1 (centres undefined) | > 10 µM | 7.65 µM | > 10 µM | 4.57 µM | – | – | – | – | – | – | – |
| COc1ccc(C2C(C#N)=C(N)Oc3c2ccc2ccc(C)nc32)c(OC)c1OC (centres undefined) | 5.27 µM | > 10 µM | 6.16 µM | 4.89 µM | – | – | – | – | – | – | – |
| N#CC1=C(N)Oc2c(ccc3cccnc23)C1c1ccc(F)cc1 (centres undefined) | > 10 µM | > 10 µM | > 10 µM | > 10 µM | – | – | – | – | – | – | – |
| CC[C@@]1(O)C(=O)OCc2c1cc1n(c2=O)Cc2cc3cc(O)ccc3nc2-1 [HYDROXYCAMPTOTHECIN] | 2.92 µM | 0.92 µM | 0.12 µM | 1.35 µM | – | – | – | – | – | – | – |
| C[C@H]1O[C@@H](O[C@H]2[C@@H](O)C[C@H](O[C@H]3[C@@H](O)C[C@H](O[C@H]4CC[C@@]5(C)[C@H](CC[C@@H]6[C@@H]5C[C@@H](O)[C@]5(C)[C@@H](C7=CC(=O)OC7)CC[C@]65O)C4)O[C@@H]3C)O[C@@H]2C)C[C@H](O)[C@@H]1O [DIGOXIN] | – | – | – | – | 18 ×10⁻⁶ cm/s | 0.49 ×10⁻⁶ cm/s | 36.9 | – | – | – | – |
| N#CC1=C(N)Oc2c(ccc3cccnc23)C1c1ccccc1 (centres undefined) | > 10 µM | > 10 µM | > 10 µM | 2.47 µM | – | – | – | – | – | – | – |
| COc1cc(OC)c(C2C(C#N)=C(N)Oc3c2ccc2ccc(C)nc32)cc1OC (centres undefined) | 4.68 µM | 7.87 µM | 8.13 µM | 4.64 µM | – | – | – | – | – | – | – |
| COc1cc2c(c(OC)c1OC)-c1ccc(OC)c(=O)cc1[C@@H](NC(C)=O)CC2 [COLCHICINE] | – | – | – | – | – | – | – | 19.7% | 46.5% | – | – |
| N#CC1=C(N)Oc2c(cc(Cl)c3cccnc23)C1c1ccccc1 (centres undefined) | 4.38 µM | > 10 µM | 9.66 µM | 0.3 µM | – | – | – | – | – | – | – |
| COc1cc(C2C(C#N)=C(N)Oc3c2ccc2ccc(C)nc32)cc(OC)c1Br (centres undefined) | 2.87 µM | > 10 µM | 1.59 µM | 2.6 µM | – | – | – | – | – | – | – |
| N#CC1=C(N)Oc2c(cc(Cl)c3cccnc23)C1c1ccc(F)cc1 (centres undefined) | > 10 µM | > 10 µM | > 10 µM | > 10 µM | – | – | – | – | – | – | – |
| Cc1ccc2ccc3c(c2n1)OC(N)=C(C#N)C3c1ccc(F)cc1 (centres undefined) | 7.87 µM | 7.58 µM | 3.25 µM | 2 µM | – | – | – | – | – | – | – |
| Cc1ccc2ccc3c(c2n1)OC(N)=C(C#N)C3c1ccc(Cl)c(Cl)c1 (centres undefined) | 1.98 µM | 8.17 µM | 1.24 µM | 1.25 µM | – | – | – | – | – | – | – |
| COc1ccc(C2C(C#N)=C(N)Oc3c2ccc2cccnc32)cc1OC (centres undefined) | > 10 µM | > 10 µM | > 10 µM | 2.95 µM | – | – | – | – | – | – | – |
| Cc1ccc2ccc3c(c2n1)OC(N)=C(C#N)C3c1ccc(Br)cc1 (centres undefined) | > 10 µM | > 10 µM | 8.12 µM | > 10 µM | – | – | – | – | – | – | – |
| Cc1ccc(C2C(C#N)=C(N)Oc3c2ccc2ccc(C)nc32)cc1 (centres undefined) | 6.12 µM | 9.02 µM | 3.05 µM | 5.51 µM | – | – | – | – | – | – | – |
| COc1ccc(C2C(C#N)=C(N)Oc3c2cc(Cl)c2cccnc32)c(OC)c1OC (centres undefined) | > 10 µM | > 10 µM | > 10 µM | > 10 µM | – | – | – | – | – | – | – |

| SMILES | IC50 (U-87 MG [1]) | IC50 at 48 h [2] | IC50 (A549) | IC50 (Huh-7) | Papp B→A at 1.5 h, 10 µM [3] | Papp A→B at 1.5 h, 10 µM [4] | efflux ratio at 1.5 h, 10 µM (P-gp) | Activity (U-87 MG [5]) | Activity (U-87 MG [6]) | Activity [7] | Activity [8] |
| --- | --- | --- | --- | --- | --- | --- | --- | --- | --- | --- | --- |
| Cn1nnc2c(C(N)=O)ncn2c1=O [TEMOZOLOMIDE] | – | – | – | – | 31.8 ×10⁻⁶ cm/s | 30.6 ×10⁻⁶ cm/s | 1.04 | – | – | Non-Toxic | Non-Toxic |
| COc1ccc(C2C(C#N)=C(N)Oc3c2ccc2cccnc32)c(OC)c1OC (centres undefined) | > 10 µM | > 10 µM | > 10 µM | > 10 µM | – | – | – | – | – | – | – |
| N#CC1=C(N)Oc2c(cc(Cl)c3cccnc23)C1c1ccc(Br)cc1 (centres undefined) | > 10 µM | > 10 µM | > 10 µM | > 10 µM | – | – | – | – | – | – | – |
| Cc1ccc2ccc3c(c2n1)OC(N)=C(C#N)C3c1ccc(C(C)C)cc1 (centres undefined) | 4.28 µM | > 10 µM | 4.57 µM | 6.34 µM | – | – | – | – | – | – | – |
| CC(C)c1ccc(C2C(C#N)=C(N)Oc3c2cc(Cl)c2cccnc32)cc1 (centres undefined) | > 10 µM | > 10 µM | > 10 µM | > 10 µM | – | – | – | – | – | – | – |
| COc1ccc(C2C(C#N)=C(N)Oc3c2cc(Cl)c2cccnc32)cc1OC (centres undefined) | > 10 µM | > 10 µM | > 10 µM | > 10 µM | – | – | – | – | – | – | – |
| Cc1ccc(C2C(C#N)=C(N)Oc3c2ccc2cccnc32)cc1 (centres undefined) | > 10 µM | > 10 µM | > 10 µM | > 10 µM | – | – | – | – | – | – | – |
| CC(C)c1ccc(C2C(C#N)=C(N)Oc3c2ccc2cccnc32)cc1 (centres undefined) | > 10 µM | > 10 µM | > 10 µM | > 10 µM | – | – | – | – | – | – | – |
| Cc1ccc2ccc3c(c2n1)OC(N)=C(C#N)C3c1cccc(Cl)c1Cl (centres undefined) | 3.69 µM | > 10 µM | > 10 µM | 2.22 µM | – | – | – | – | – | – | – |
| COc1ccc(C2C(C#N)=C(N)Oc3c2ccc2ccc(C)nc32)cc1OC (centres undefined) | 4.85 µM | > 10 µM | > 10 µM | > 10 µM | – | – | – | – | – | – | – |
| N#CC1=C(N)Oc2c(ccc3cccnc23)C1c1ccc(Br)cc1 (centres undefined) | > 10 µM | > 10 µM | > 10 µM | > 10 µM | – | – | – | – | – | – | – |
| N#CC1=C(N)Oc2c(cc(Cl)c3cccnc23)C1c1ccc(Cl)c(Cl)c1 (centres undefined) | 4.13 µM | > 10 µM | 6.42 µM | 2.14 µM | – | – | – | – | – | – | – |
| Cc1ccc(C2C(C#N)=C(N)Oc3c2cc(Cl)c2cccnc32)cc1 (centres undefined) | > 10 µM | > 10 µM | > 10 µM | > 10 µM | – | – | – | – | – | – | – |
| N#CC1=C(N)Oc2c(ccc3cccnc23)C1c1ccc(Cl)c(Cl)c1 (centres undefined) | 6.18 µM | 8.23 µM | 4.95 µM | 2.35 µM | – | – | – | – | – | – | – |
| N#CC1=C(N)Oc2c(ccc3cccnc23)C1c1ccc(Cl)cc1 (centres undefined) | > 10 µM | > 10 µM | > 10 µM | > 10 µM | – | – | – | – | – | – | – |
| CCc1ccc(C2C(C#N)=C(N)Oc3c2ccc2ccc(C)nc32)cc1 (centres undefined) | 5.93 µM | > 10 µM | 2.44 µM | 3.46 µM | – | – | – | – | – | – | – |
| Cc1ccc2ccc3c(c2n1)OC(N)=C(C#N)C3c1ccc(Cl)cc1 (centres undefined) | 8.08 µM | > 10 µM | > 10 µM | 5.31 µM | – | – | – | – | – | – | – |
